This is an account of results in paper PMC10654779, “Development of a fibroblast activation protein-targeted PET/NIR dual-modality probe and its application in head and neck cancer” (Frontiers in Bioengineering and Biotechnology, 2023).

Bounds are passed on as bounds.

Series [1] has as its system BALB/c mice. In words: Toxicity study in BALB/c mice. It counts as in vivo. How it is done: The BALB/c mice were sacrificed and collected from the heart, liver, spleen, lung, and kidney to determine toxicity with hematoxylin and eosin (H&E) staining. The serum was collected to measure the levels of aspartate aminotransferase (AST), alanine aminotransferase (ALT), and blood urea nitrogen (UREA). Body weight was recorded every 5 days up to 20 days postinjection. The mice with intravenous injections of saline served as a control group.

Series [2] in a line: in vivo. It counts as in vivo, mice. To be noted: female, BALB/c nude, mouse, in vivo, iv, total radioactivity. As for the experimental part: (§1) All animal studies were performed according to the protocols approved by the Animal Welfare Ethics Committee of Shanghai Fourth People’s Hospital. Six to eight-week-old female BALB/c nude mice were purchased from Beijing Vital River Laboratory Animal Technology Co., Ltd. To establish cell-derived xenograft (CDX) models, the mice were implanted subcutaneously in the flanks with 5 × 10^6 U87MG cells in PBS containing 50% Matrigel. HNSCC cell lines (FaDu, CAL27, and CNE2) were inoculated subcutaneously on the right flanks of nude mice. The diameter of each tumor was determined and documented every 2–3 days. When the tumor reached 300–400 mm^3, the mice were used for the imaging study. The U87MG tumor-bearing mice were used to study the in vivo targeting, biodistribution, and optimal FI time window of [^68Ga]Ga-FAP-2286-ICG. HNSCC tumor-bearing mice were used to evaluate the feasibility of [^68Ga]Ga-FAP-2286-ICG for tumor localization and guided surgical resection of HNSCC tumors.
(§2) PET/CT imaging was performed in U87MG tumor-bearing mice to assess the tumor-targeting efficiency and biodistribution of [^68Ga]Ga-FAP-2286-ICG in vivo. The mice were injected with 10 MBq (1 nmol) of [^68Ga]Ga-FAP-2286-ICG through the tail vein, and images were performed at 30, 60, and 90 min after injection. The blocking group was pre-injected with the 50-fold molar excess of non-radiolabeled precursor 1 h in advance.

Series [3] concerns U87MG xenografts. As to the kind of experiment: in vivo. It counts as in vivo, mice. The following applies: for SUVmax of the tumor: U87MG tumor-bearing mice, 10 MBq (1 nmol) i.v. How it is done:
as §1, §2

Series [4] is classed as physicochemical. To be noted: pH 7.4. As for the experimental part:
The octanol-water partition coefficient of [^68Ga]Ga-FAP-2286-ICG was detected by mixing 10 μL of freshly prepared [^68Ga]Ga-FAP-2286-ICG with 490 μL of PBS (0.1 M, pH 7.4) and 500 μL of n-octanol in a centrifuge tube. The mixture was vortexed for 3 min and centrifuged at 3,000 × rpm for 5 min for layer separation. An aliquot of the aqueous and n-octanol layers was separately collected and measured by γ counter (GC-2101, PET Co., Ltd). Log p values were calculated using the formula: log P = log(total counts in octanol/total counts in PBS).

Series [5] can be described thus: in vitro. It is filed as in vitro ADME. As for the experimental part: The radiochemical purity (RCP) of [^68Ga]Ga-FAP-2286-ICG was assessed using radio instant thin-layer chromatography (Radio-iTLC). Glass microfiber chromatography paper impregnated with a silica gel served as the stationary phase and methanol and 0.25 M sodium acetate (1:1, v/v) as the mobile phase.
The in vitro stability of [^68Ga]Ga-FAP-2286-ICG was assessed by co-culture with 0.01 M PBS and FBS at a concentration of 10% (w/w), respectively, and the mixtures were incubated at 37°C for 0.5, 1, and 2 h.

Series [6] has as its system U87MG cells. In words: Cellular uptake study (radioactivity, γ-counter). It counts as cell-based, human. How it is done: (§3) For the cellular uptake study, U87MG cells (2×10^5 cells/well) were seeded in 24-well plates and incubated at 37°C for 24 h before the experiments (five replicate wells per group). After removing the medium and washing the cells with fresh medium, the cells in each well were treated with DMEM medium containing 0.74 MBq [^68Ga]Ga-FAP-2286-ICG at 37°C for 30, 60, and 120 min. After removing the medium, the cells were washed twice with cold PBS, lysed with NaOH (1 M) twice (0.5 mL/well), and collected. The bound activity was measured with a γ-counter. For the blocking study, a 100-fold excess of the non-radiolabeled precursor was added before treating the cells with [^68Ga]Ga-FAP-2286-ICG. Subsequent experimental procedure and condition were the same as the aforementioned cellular uptake assay. To further verify whether the introduction of ICG affected the targeting of the precursor, [^68Ga]Ga-FAP-2286 was incubated with U87MG cells for 2 h as a control group. Additionally, the retention effect of probe on the tumor was verified. Briefly, U87MG cells were incubated with DMEM medium containing approximately 3 μM (based on the content of ICG) FAP-2286-ICG or ICG at 37 °C for 2, 4, 8, and 24 h. After discarding the medium, the cells were washed three times with PBS and imaged using a small animal FI system with ICG mode to quantify the fluorescent signal.

Series [7] has as its system U87MG xenografts. In words: NIR fluorescence imaging of U87MG tumor-bearing mice. It is filed as in vivo. The following applies: 0.5-72 h post-injection, n = 3. As for the experimental part:
FI was performed using a small animal FI system with ICG mode: The NIR filter set (Excitation: 740–790 nm; Emission: 810–860 nm) was used for ICG fluorescence. The fluorescence intensity was calculated by the mean fluorescence intensity (MFI).
To evaluate the optimal imaging time window, NIR fluorescence images of U87MG tumor-bearing mice were collected at different time points (0.5, 1, 2, 24, 48, and 72 h) post-injection of FAP-2286-ICG (3.16 μg, 1.37 nmol). Following in vivo FI, mice were euthanized, and their xenografts and major organs were harvested for in vitro FI analysis. The ROIs were drawn manually in the tumor and organs on the fluorescence image to account for the distribution of FAP-2286-ICG in the tissue. MFI levels from organs and the TBRs using tumor/muscle values were evaluated.

A short description of series [8]: Optical properties (UV/Vis absorbance and fluorescence emission spectra). It is filed as physicochemical. The following applies: 10 μM in PBS, diluted from 1 mM DMSO. As for the experimental part:
The ultraviolet absorption spectra of FAP-2286-ICG were collected using a UV/Vis spectrophotometer (DU-730, BeckMan Coulter). Fluorescence spectra were collected using a fluorescence spectrometer (FLS980, Edinburgh instruments). FAP-2286-ICG and ICG were dissolved in DMSO at a concentration of 1 mM before being diluted with PBS to a final concentration of 10 μΜ, respectively. The absorbance spectra were taken between 600 and 1100 nm. The emission spectra were recorded in the 790–860 nm range at an excitation wavelength of 770 nm. The concentration dependence of fluorescence intensity of FAP-2286-ICG was assessed with different concentrations of FAP-2286-ICG (0–100 μM). The fluorescent images were collected using a small animal fluorescence imaging system (VISQUE InVivo Smart-LF, Vieworks Co., Ltd) and analyzed using CleVue™ software (Vieworks Co., Ltd).

Series [9] concerns U87MG cells. As to the kind of experiment: Cellular retention by fluorescence imaging. The following applies: 3 μM (based on ICG), 37 °C, 24 h incubation, n = 5. It counts as cell-based, human. How it is done:
as §3

For series [10] the following is noted: human; no reference given; cited from earlier work. From the text:
Novel methodologies employing dual-labeled probes aid the surgeon by allowing for more streamlined preoperative planning via PET/CT or PET/MRI and accurate intraoperative navigation guidance.

For the molecule `CCCCCC(=O)N[C@H]1CSCc2cc(CSCCNC(=O)[C@H](CCCCNC(=O)CCCCCN3/C(=C/C=C/C=C/C=C/C4=[N+](CCCCS(=O)(=O)[O-])c5ccc6ccccc6c5C4(C)C)C(C)(C)c4c3ccc3ccccc43)NC(=O)CN3CCN(CC(=O)O)CCN(CC(=O)O)CCN(CC(=O)O)CC3)cc(c2)CSC[C@@H](C(=O)O)NC(=O)[C@H](Cc2ccccc2)NC(=O)[C@H](CCC(N)=O)NC(=O)[C@H]([C@@H](C)O)NC(=O)[C@@H]2CCCN2C(=O)[C@@H]2CCCN2C1=O` [[^68Ga]Ga-FAP-2286-ICG, metal not drawn], the acute toxicity entry in [1] (BALB/c mice, 3-week period, n = 3) is recorded as “no evident signs of acute toxicity”. For the same molecule, the “serum concentrations of AST, ALT and UREA versus control group” value in series [1] (BALB/c mice, 3 weeks after injection, saline control, n = 3) was “did not exhibit significant changes”. Moreover, the “pathological abnormalities in major organs (H&E)” value in series [1] (mouse, in vivo) is reported as “No significant pathological abnormalities”. Further, in series [2], the SUV is 0.18 ± 0.07 SUV. Also, the “SUVmax of the tumor, blocking group” value in series [3] (60 min p.i., 50-fold molar excess of non-radiolabeled precursor pre-injected 1 h in advance, n = 3) is 0.17 ± 0.01. Moreover, the “SUVmax of the tumor” value is 0.57 ± 0.10 in [3] (30 min, n = 3) and 0.58 ± 0.23 in series [3] (90 min, n = 3). The “route of elimination (PET/CT)” value in series [3] (mouse, in vivo) was “mainly eliminated through liver metabolism and kidney excretion”. Further, the “partition coefficient log P” value in [4] is on record as −1.20 ± 0.18. For the same molecule, in [5], the “RCP after incubation in PBS” value is “greater than 85%”. For the same molecule, the amount remaining at 2 h in series [5] (serum) is over 85%. Further, the cellular uptake in series [6] (0.74 MBq, 37°C, 60 min, five replicate wells) is on record as 12.00% ± 1.73 %ID. The “cellular uptake, blocked” value in series [6] (60 min, 100-fold excess of non-radiolabeled precursor) was 6.88% ± 0.37 %ID. Further, in [6] (2 h incubation, p = 0.1945), the “cellular uptake of [68Ga]Ga-FAP-2286-ICG compared to [68Ga]Ga-FAP-2286” value was “no statistically significant difference”.

Take `CC1(C)C(/C=C/C=C/C=C/C=C2\N(CCCCS(=O)(=O)O)c3ccc4ccccc4c3C2(C)C)=[N+](CCCCS(=O)(=O)[O-])c2ccc3ccccc3c21` [ICG, indocyanine green]: the “fluorescence signal in the tumor site” value in series [7] is “no fluorescence signals in the tumor site”. Further, the “NIR-I fluorescence emission peak” value in [8] (excitation 770 nm, 790-860 nm) came out at 808 nm. This molecule showed an absorption peak in series [8] (spectra 600-1100 nm) of 779 nm. In series [9], the “fluorescent signal retained by cells” value is 3.13×10^13 ± 2.21×10^12 p/sec/cm^2/sr/[μW/cm^2]. Besides, in series [10], the clinically safe dose is reported as 5 mg/kg.
